{"source": "patent US11975003B2", "about": "“Methods and compositions for treatment of Zika virus infection” (priority 2016, dated 2024)", "key": {"[1]": {"system": "Zika virus Malaysia P 6-740", "assay": "Virus yield reduction (VYR) assay", "assay_type": "cell-based", "conditions": "Zika virus", "experimental": "(§1) The compounds were administered at a range of concentrations up to 100 μg/ml. Compounds were prepared in MEM just prior to testing. Inhibition of virus replication was determined by microscopic examination of the infected cells for cytopathic effect, increase of neutral red (NR) dye uptake (colorimetric determination), and virus yield reduction. Uninfected cells treated with a compound were assayed as above for cytotoxicity control. The EC50, EC90 and SI (selectivity index) values were determined in Vero76, Huh7 and RD cells as analyzed by the neutral red uptake dye assay and virus yield reduction assays. The results are presented from 3 or more independent experiments (standard deviations not shown. Three Zika virus strains were used in this in vitro study, Malaysia strain P 6-740, Uganda strain MR-766 and Puerto Rico strain PRVABC-59. Cells were maintained under standard conditions."}, "Zika virus Uganda MR 766 [2]": {"system": "Zika virus Uganda MR 766", "assay": "Virus yield reduction (VYR) assay", "assay_type": "cell-based", "conditions": "Zika virus", "experimental": "as §1"}, "[3]": {"system": "Zika virus Puerto Rico PRVABC59", "assay": "Virus yield reduction (VYR) assay", "assay_type": "cell-based", "conditions": "Zika virus", "experimental": "as §1"}, "Zika virus": {"system": "Zika virus", "assay": "Virus yield reduction curves (FIGS. 1E-1G), strain not stated", "assay_type": "cell-based", "experimental": "as §1"}, "[4]": {"system": "Zika virus (Malaysia, strain P 6-740)", "assay": "Murine Zika virus model, treatment begun 4 h before infection (Example 3)", "conditions": "for percentage weight change vs placebo: FIG. 6; for relative virus levels vs placebo: FIG. 7; for survival vs placebo: none surviving past day 20", "experimental": "The agents used in this experiment were compound A (the compound of formula I, where A is NH2 and B is H as the HCL salt) and ribavirin. Compound A was administered IM at 150 mg/kg/day and 300 mg/kg/day, each in a volume of 0.05 ml saline and ribavirin was administered IP at 75 mg/kg/day and 50 mg/kg/day, each in a volume of 0.1 ml saline. IM or IP administration of the daily dose was accomplished in two IM/IP injections of one-half the daily dose each. Mice were administered the first dose of Compound A and ribavirin 4 hours prior to infection with Zika virus and continued the treatment for 8 days post-infection.\nIn this experiment, Zika virus (Malaysia, strain P 6-740) was administered at a challenge dose of 100 CCID50 (10^3 pfu) per mouse via subcutaneous injection in a 0.1 ml volume.\nMice were monitored for survival 28 days post-virus challenge. Weight change for individual mice were taken on day 0 and every other day through the end of the experiments. Mice were observed daily for signs of disease including conjunctivitis, hunching, and limb weakness or paralysis.\nFor Zika virus infection and antiviral treatment studies, mice were randomly assigned to groups of 10 animals each. A 10^-3 dilution (10^4.0 pfu/mL) of the virus was prepared in MEM. Mice were challenged s.c. with 0.1 mL of the diluted virus (˜10^3.0 pfu/animal). All compound dosages were based on an average mouse weight of 22 g. Compounds were prepared in sterile saline less than 18 hours prior to initial administration in mice and stored at 4° C. for the duration of the study. Compound A was administered i.m., twice daily (bid) at 300 or 150 mg/kg/d. Ribavirin was given i.p., bid at 75 or 50 mg/kg/d. Treatments began 4 hours prior to virus challenge and continued for 8 days. The identity of the treatment groups was blinded to the technician administering treatments. Mortality was observed twice daily for 28 days, and the weight of each mouse was recorded on day 0 and then every other day from 1-19 days post-virus infection (dpi). Mice were humanely euthanized if they could no longer right themselves or were unresponsive to stimuli.\nFifty to 100 mg of freshly isolated tissue was ground with a pestle in 1 mL TRI Reagent (Sigma-Aldrich, St. Louis, MO) and total RNA was extracted. For the extraction of viral RNA from liquid samples, QlAamp Viral RNA Mini Spin kit was used according to the manufactures instructions (Qiagen, Valencia, CA). Extracted RNA was eluted with nuclease-free water and was amplified by a quantitative real-time RT-PCR using the Logix Smart Zika Test developed by Co-Diagnostics, Inc. (Bountiful, UT). Five μL of the master mix containing a set of primers and Rapid Probe, labeled with a FAM fluorophore and DABCYL quencher, was mixed with 2-5 μL of RNA and an appropriate volume of water for a final reaction volume of 10 μl. RNA was first reverse transcribed for 10 minutes at 55° C., followed by strand separation by heating to 95° C. for 20 seconds. The PCR reaction consisted of 40 cycles at 95° C. for 1 second and 55° C. for 20 seconds. A standard curve was generated with a synthetic RNA spanning the region of amplification and it was used to calculate the number of genome equivalents of the unknown samples."}, "[5]": {"system": "Zika virus Malaysia P 6-740", "assay": "CPE reduction assay (neutral red uptake)", "assay_type": "cell-based", "conditions": "Zika virus", "experimental": "as §1"}, "Zika virus Uganda MR 766 [6]": {"system": "Zika virus Uganda MR 766", "assay": "CPE reduction assay (neutral red uptake)", "assay_type": "cell-based", "conditions": "Zika virus", "experimental": "as §1"}, "[7]": {"system": "Zika virus Puerto Rico PRVABC59", "assay": "CPE reduction assay (neutral red uptake)", "assay_type": "cell-based", "conditions": "Zika virus", "experimental": "as §1"}, "[8]": {"assay": "Phase 1 study of intramuscular injection in healthy human subjects (Example 8)", "assay_type": "in vivo", "conditions": "Compound A 4 mg/kg IM with lidocaine", "experimental": "A phase 1 double-blind, placebo-controlled, dose-ranging study was conducted to evaluate the safety, tolerability, and pharmacokinetics of Compound A administered by intramuscular injection (IM) in healthy human subjects. The study was conducted in two parts. In part 1, subjects received a single dose of Compound A at doses from 0.3 mg/kg to 10 mg/kg via IM administration. Additionally, the effect of lidocaine administration (co-administered with Compound A at a dose of 4 mg/kg) on alleviation of pain associated with injection was also evaluated. In part 2, subjects received Compound A for 7 days (q.d.) at doses of 2.5 mg/kg/day, 5 mg/kg/day or 10 mg/kg/day via IM administration. 50 subjects received single doses of Compound A in part 1 (12 subjects received placebo) and 23 subjects received multiple doses of Compound A in part 2 (6 subjects received placebo). All planned cohorts were completed.\nEligible subjects were adults of either sex ages 18 to 50. […]\nThe plasma concentration time profile of Compound A was determined for each subject in part 2 (results expressed as ng/ml Compound A). Blood samples were taken on Day 1 prior to administration of the first dose and at 1, 2, 3, 4, 6, 8, 10, 12, 16 and 24 hours after administration of the first dose of Compound A and on Day 7 prior to administration of the last dose of Compound A and at 1, 2, 3, 4, 6, 8, 10, 12, 16, 24, 36, 48, 72 and 96 hours after administration of the last dose of Compound A. Plasma samples were obtained from the blood samples and the concentration of Compound A determined."}}, "note": "Like-named read-outs stand apart in the source and are kept apart here."}
{"molecule": "NC(=O)c1ncn([C@@H]2O[C@H](CO)[C@@H](O)[C@H]2O)n1", "note": "[Ribavirin, reference compound]", "values": [{"measurement": "EC90", "setting": "[1]; Huh-7 cells", "result": "13.1 ± 0.5", "unit": "µg/mL"}, {"measurement": "EC90", "setting": "[1]; Vero 76, Vero76 cells", "result": "195 ± 63.6", "unit": "µg/mL"}, {"measurement": "EC90", "setting": "Zika virus Uganda MR 766 [2]; Huh-7 cells", "result": "9.52 ± 2.1", "unit": "µg/mL"}, {"measurement": "EC90", "setting": "Zika virus Uganda MR 766 [2]; RD cells", "result": "13.2 ± 1.7", "unit": "µg/mL"}, {"measurement": "EC90", "setting": "Zika virus Uganda MR 766 [2]; Vero 76, Vero76 cells", "result": "198 ± 172", "unit": "µg/mL"}, {"measurement": "EC90", "setting": "[3]; Vero 76, read-out: VYR assay EC90", "result": "≥ 281", "unit": "µg/mL"}, {"measurement": "EC90", "setting": "[3]; Puerto Rico PRVABC59, Huh-7 cells, read-out: VYR assay EC90", "result": "10.4 ± 0.8", "unit": "µg/mL"}, {"measurement": "EC90", "setting": "[3]; Puerto Rico PRVABC59, RD cells, read-out: VYR assay EC90", "result": "46.3 ± 8.6", "unit": "µg/mL"}, {"measurement": "antiviral activity in virus yield reduction", "setting": "Zika virus; Huh-7 cells, FIG. 1F", "result": "confirmed the antiviral activity"}, {"measurement": "antiviral activity in virus yield reduction", "setting": "Zika virus; RD cells, FIG. 1G", "result": "confirmed the antiviral activity"}, {"measurement": "activity in VYR studies", "setting": "Zika virus; Vero76 cells, FIG. 1E", "result": "not active"}, {"measurement": "percentage weight change vs placebo", "setting": "[4]; 50 mg/kg/day IP (group 7)", "result": "no significant improvement"}, {"measurement": "relative virus levels vs placebo", "setting": "[4]; 50 mg/kg/day IP (group 7)", "result": "failed to decrease relative virus levels"}, {"measurement": "survival vs placebo", "setting": "[4]; 50 mg/kg/day IP bid x 8 days, begun -4 h (group 7)", "result": "did not increase the survival"}, {"measurement": "percentage weight change vs placebo", "setting": "[4]; 75 mg/kg/day IP (group 5)", "result": "no significant improvement"}, {"measurement": "relative virus levels vs placebo", "setting": "[4]; 75 mg/kg/day IP (group 5)", "result": "failed to decrease relative virus levels"}, {"measurement": "survival vs placebo", "setting": "[4]; 75 mg/kg/day IP bid x 8 days, begun -4 h (group 5)", "result": "did not increase the survival"}, {"measurement": "weight change in sham-infected mice at day 19", "setting": "[4]; 75 mg/kg/day IP, sham infection", "result": "no significant weight change"}, {"measurement": "EC50", "setting": "[5]; Huh-7 cells", "result": "7.2 ± 2.8", "unit": "µg/mL"}, {"measurement": "EC50", "setting": "[5]; Vero 76, Vero76 cells", "result": "143 ± 85", "unit": "µg/mL"}, {"measurement": "EC50", "setting": "Zika virus Uganda MR 766 [6]; Huh-7 cells", "result": "8.9 ± 7.9", "unit": "µg/mL"}, {"measurement": "EC50", "setting": "Zika virus Uganda MR 766 [6]; RD cells", "result": "9.3 ± 5.2", "unit": "µg/mL"}, {"measurement": "EC50", "setting": "Zika virus Uganda MR 766 [6]; Vero 76, Vero76 cells", "result": "85 ± 77.9", "unit": "µg/mL"}, {"measurement": "EC50", "setting": "[7]; Vero 76, read-out: CPE red. assay EC50", "result": "23 ± 16.8", "unit": "µg/mL"}, {"measurement": "EC50", "setting": "[7]; Puerto Rico PRVABC59, Huh-7 cells, read-out: CPE red. assay EC50", "result": "3.8 ± 1.6", "unit": "µg/mL"}, {"measurement": "EC50", "setting": "[7]; Puerto Rico PRVABC59, RD cells, read-out: CPE red. assay EC50", "result": "10 ± 6", "unit": "µg/mL"}]}
{"molecule": "CCN(CC)CC(=O)Nc1c(C)cccc1C", "note": "[lidocaine, reference compound]", "values": [{"measurement": "injection site pain on co-administration with Compound A", "setting": "[8]", "result": "ameliorate injection site pain"}]}
